Results reported in patent US5716797A, “Stable two-part reagent for the measurement of creatine kinase activity” (Wako Pure Chemical Industries, Ltd., priority 1995, dated 1998).
Where “and” joins values, the source holds several entries; their conditions need not be identical. Identical values can stand only once. Like-named read-outs stand apart in the source and are kept apart here.

Tests used:
[1] = target: T1, creatine kinase (CK) in human serum (Homo sapiens, UniProt P06732); assay: Inhibitory effect of oxidized products of SH compounds on CK activity (HK/G6PDH UV method, NAC 26 mM as reactivator); format: biochemical; details: for CK activity value / CK activity value, Average: 5 mM SH compound oxidized product; for CK activity value: NAC 26 mM, 37° C.; for CK activity value, Average: average of 5 samples; for activity at 5000 µM: read-out: CK activity, relative value
T1 construct: Five fresh human serum samples were used; from tissue; host or cells: fresh human serum
Experimental: Investigation on the inhibitory effect of oxidized products of SH compounds on CK activity
Thus, oxidized products of the SH compounds, respectively, were obtained.
NAC (26 mM) as CK reactivator, each 5 mM of SH compound oxidized product obtained above, 2.6 mM of ADP, 3.9 u/ml of HK (available from Oriental Yeast Co., Ltd.), 8.0 u/ml of G6PDH (available from Oriental Yeast Co., Ltd.), 2.6 mM of NADP, 21 mM of glucose, 10 mM of magnesium acetate, 6.5 mM of AMP, 0.013 mM of APSA, 0.1% (w/v) of sodium azide and 2 mM of EDTA-2Na were dissolved in 128 mM imidazole-acetate buffer (pH 6.7). The thus obtained solutions were adjusted to pH 6.7 with sodium hydroxide to obtain enzyme solutions.
An enzyme solution containing no SH compound oxidized product was prepared as a control standard solution.
(§1) Five fresh human serum samples were used.
(§2) To 8 μl of each sample was added 320 μl of each enzyme solution, followed by preincubation for 5 minutes. Then, 80 μl of the substrate solution was added to initiate the reaction and the change of absorbance per minute was measured for 3 minutes from 2 minutes after the addition of the substrate solution. The CK activity value was calculated from the molecular extinction coefficient of the NADPH produced.
(§3) As a measuring apparatus, an Autoanalyzer Hitachi Model 7150 was used, and the measurement was carried out at 37° C. by use of dual wavelength (λ1 =405 nm, λ2 =340 nm).
Tables 2 and 3 show the CK activity values of the 5 samples in each case and the average thereof.

[2] = system: creatine kinase (CK) in human serum; assay: CK activity measured with enzyme solutions containing SH compounds as CK reactivator, fresh and after 1 month of storage (Example 1 / Comparative Example 1); format: biochemical; details: for CK activity, relative value: NAC just after preparation = 100%
Experimental: The resulting solution was adjusted to pH 6.7 with sodium hydroxide and stored at a predetermined temperature for a predetermined period. The thus obtained solution were used as enzyme solutions.
as §1, §2, §3
Enzyme solutions were prepared in the same manner as in Example 1 by use of the same reagents as in Example 1 except for using a predetermined concentration(s) of one or two SH compounds properly selected from the above-mentioned CK reactivators, in place of the CK reactivator(s) used in Example 1.
CK activity was measured in the same manner as in Example 1.

[3] = average with enzyme solution containing no SH compound oxidized product = 100%, 5 mM oxidized product
[4] = Sample 1, enzyme solution just after preparation, TG 100 mM, 2ME 26 mM, 2MES 26 mM, NAC 26 mM
[5] = Sample 2, enzyme solution just after preparation, TG 100 mM, 2ME 26 mM, 2MES 26 mM, NAC 26 mM
[6] = Sample 2, enzyme solution stored at 10° C. for 1 month, TG 100, 2ME 26, 2MES 26, NAC 26, L-cysteine 6.5, GSH 12, TDG 5, DTT 6.5 mM
[7] = Sample 2, enzyme solution stored at 20° C. for 1 month, TG 100, 2ME 26, 2MES 26, NAC 26, L-cysteine 6.5, GSH 12, TDG 5, DTT 6.5 mM
[8] = Sample 3, enzyme solution just after preparation, TG 100 mM, 2ME 26 mM, 2MES 26 mM, NAC 26 mM
[9] = Sample 3, enzyme solution stored at 10° C. for 1 month, TG 100, 2ME 26, 2MES 26, NAC 26, L-cysteine 6.5, GSH 12, TDG 5, DTT 6.5 mM
[10] = Sample 3, enzyme solution stored at 20° C. for 1 month, TG 100, 2ME 26, 2MES 26, NAC 26, L-cysteine 6.5, GSH 12, TDG 5, DTT 6.5 mM
[11] = Sample 4, enzyme solution just after preparation, TG 100 mM, 2ME 26 mM, 2MES 26 mM, NAC 26 mM
[12] = Sample 4, enzyme solution stored at 10° C. for 1 month, TG 100, 2ME 26, 2MES 26, NAC 26, L-cysteine 6.5, GSH 12, TDG 5, DTT 6.5 mM
[13] = Sample 4, enzyme solution stored at 20° C. for 1 month, TG 100, 2ME 26, 2MES 26, NAC 26, L-cysteine 6.5, GSH 12, TDG 5, DTT 6.5 mM
[14] = Sample 5, enzyme solution just after preparation, TG 100 mM, 2ME 26 mM, 2MES 26 mM, NAC 26 mM
[15] = Sample 5, enzyme solution stored at 10° C. for 1 month, TG 100, 2ME 26, 2MES 26, NAC 26, L-cysteine 6.5, GSH 12, TDG 5, DTT 6.5 mM
[16] = Sample 5, enzyme solution stored at 20° C. for 1 month, TG 100, 2ME 26, 2MES 26, NAC 26, L-cysteine 6.5, GSH 12, TDG 5, DTT 6.5 mM
[17] = average of 5 samples, enzyme solution just after preparation, TG 100 mM, 2ME 26 mM, 2MES 26 mM, NAC 26 mM
[18] = average of 5 samples, enzyme solution stored at 10° C. for 1 month, TG 100, 2ME 26, 2MES 26, NAC 26, L-cysteine 6.5, GSH 12, TDG 5, DTT 6.5 mM
[19] = average of 5 samples, enzyme solution stored at 20° C. for 1 month, TG 100, 2ME 26, 2MES 26, NAC 26, L-cysteine 6.5, GSH 12, TDG 5, DTT 6.5 mM
[20] = enzyme solution just after preparation
[21] = enzyme solution stored at 10° C. for 1 month
[22] = enzyme solution stored at 20° C. for 1 month
[23] = Sample 1, enzyme solution stored at 20° C. for 1 month, TG 100, 2ME 26, 2MES 26, NAC 26, L-cysteine 6.5, GSH 12, TDG 5, DTT 6.5 mM
[24] = Sample 1, enzyme solution stored at 10° C. for 1 month, TG 100, 2ME 26, 2MES 26, NAC 26, L-cysteine 6.5, GSH 12, TDG 5, DTT 6.5 mM

T1 sequence (P06732 whole entry): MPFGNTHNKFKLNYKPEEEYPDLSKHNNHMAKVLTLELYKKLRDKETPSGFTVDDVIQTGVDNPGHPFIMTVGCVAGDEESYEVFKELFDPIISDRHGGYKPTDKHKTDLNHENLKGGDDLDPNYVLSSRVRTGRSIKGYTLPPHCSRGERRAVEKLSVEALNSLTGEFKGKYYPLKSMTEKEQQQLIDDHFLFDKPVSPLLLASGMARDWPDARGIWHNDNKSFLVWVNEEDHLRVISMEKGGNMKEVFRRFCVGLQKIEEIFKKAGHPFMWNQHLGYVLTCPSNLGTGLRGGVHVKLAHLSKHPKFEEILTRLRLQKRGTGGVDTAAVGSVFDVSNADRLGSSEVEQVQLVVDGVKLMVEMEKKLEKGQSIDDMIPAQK

Structure (SMILES)	inhibition of CK activity by oxidized product ([1]; 5 mM oxidized product)	CK activity value ([1]; Sample 1 (fresh human serum)) [IU/l.]	CK activity value ([1]; Sample 2) [IU/l.]	CK activity value ([1]; Sample 3) [IU/l.]	CK activity value ([1]; Sample 4) [IU/l.]	CK activity value ([1]; Sample 5) [IU/l.]	CK activity value, Average [1] [IU/l.]	activity at 5000 µM [1, 3] [%]	CK activity value [2, 6] [IU/l]	CK activity value [2, 7] [IU/l]	CK activity value [2, 9] [IU/l]	CK activity value [2, 10] [IU/l]	CK activity value [2, 12] [IU/l]	CK activity value [2, 13] [IU/l]	CK activity value [2, 15] [IU/l]	CK activity value [2, 16] [IU/l]	CK activity value, Average [2, 18] [IU/l]	CK activity value, Average [2, 19] [IU/l]	CK activity, relative value [2, 21] [%]	CK activity, relative value [2, 22] [%]	other results
O[C@@H]1CSSC[C@H]1O (relative stereo) [DTT oxidized product]	hardly inhibited CK activity	150	407	108	319	99	216	95.9													
O=c1ccnc(SSc2nccc(=O)[nH]2)[nH]1 [2-Thiouracil oxidized product]	hardly inhibited CK activity	143	407	106	314	97	213	94.6													
OCCSSCCO [2ME oxidized product]	hardly inhibited CK activity	155	427	113	332	101	226														activity at 5000 µM [1]: 100%
OCCS [2ME, 2-mercaptoethanol]									559	559	155	155	59	58	89	89	210	209	102.8	102.4	retaining CK-reactivating ability for a long period of time in an aqueous solution [2]: capable of retaining CK-reactivating ability for a long period of time; CK activity value [2, 4]: 186 IU/l; CK activity value [2, 5]: 554 IU/l; CK activity value [2, 8]: 151 IU/l; CK activity value [2, 11]: 58 IU/l; CK activity value [2, 14]: 89 IU/l; CK activity value, Average [2, 17]: 208 IU/l; CK activity, relative value [2, 20]: 101.9%
O=S(=O)(O)CCSSCCS(=O)(=O)O [2MES oxidized product]	hardly inhibited CK activity	155	418	114	335	98	224	99.3													
O=S(=O)(O)CCS [2MES, 2-mercaptoethanesulfonic acid]									548	542	147	148	55	55	85	87	204	203	99.9	96.3	CK activity value [2]: 184 IU/l; retaining CK-reactivating ability for a long period of time in an aqueous solution [2]: capable of retaining CK-reactivating ability for a long period of time; CK activity value [2, 4]: 184 IU/l; CK activity value [2, 23]: 181 IU/l; CK activity value [2, 5]: 553 IU/l; CK activity value [2, 8]: 151 IU/l; CK activity value [2, 11]: 58 IU/l; CK activity value [2, 14]: 88 IU/l; CK activity value, Average [2, 17]: 207 IU/l; CK activity, relative value [2, 20]: 101.4%
Nc1cc(O)nc(SSc2nc(N)cc(O)n2)n1 [AHMP oxidized product]	hardly inhibited CK activity	161	407	106	322	97	217	96													
Nc1nc(SSc2nc(N)nc3c2ncn3[C@@H]2O[C@H](CO)[C@@H](O)[C@H]2O)c2ncn([C@@H]3O[C@H](CO)[C@@H](O)[C@H]3O)c2n1 [AMPR oxidized product]		0	1	0	1	0	0	0.2													
N[C@@H](CCC(=O)N[C@@H](CS)C(=O)NCC(=O)O)C(=O)O [GSH, reduced-form glutathione]																			94.1	81.9	CK activity value, Average [2]: 192 IU/l and 167 IU/l
N[C@@H](CS)C(=O)O [L-cysteine]									437	175	110	33	42	12	63	19	158	58	77.5	28.4	CK activity value [2, 24]: 140 IU/l; CK activity value [2, 23]: 52 IU/l
O.O.OC[C@H]1O[C@@H](S)[C@H](O)[C@@H](O)[C@@H]1O.[Na].[Na] [TDG, 1-thio-β-D-glucose disodium salt dihydrate]									3	4	1	2	0	0	0	0	1	1	0.4	0.6	retaining CK-reactivating ability for a long period of time in an aqueous solution [2]: incapable of retaining CK-reactivating ability in a solution for a long period of time; CK activity value [2, 24]: 0 IU/l; CK activity value [2, 23]: 0 IU/l
